Assay results: patent US4195022A, “4-Desacetoxy-4α-hydroxyvinblastine and related compounds” (Eli Lilly and Company, priority 1978, dated 1980)
Where a name gives a salt, the structure may show the parent alone.

Columns and labels:
B16 melanoma = test: anti-tumor activity against transplanted B16 melanoma in mice (prolongation of survival time); format: in vivo; conditions: B16, intraperitoneal; for toxic: 9.0 mg./kg. × 3 days
Method: (§1) The compounds of this invention, as represented by Formula II above, are anti-tumor agents. […] For this determination, a protocol was used which involved the administration of the drug by the intraperitoneal route at a given dose level for 7-10 days after innoculation with the tumor or alternatively, on the first, fifth, and ninth days after innoculation.
(§2) The following table--Table 1--give the results of several experiments in which transplanted tumors in mice were treated successfully with a compound of this invention.
(§3) In the table, column 1 gives the name of the compound; column 2, the transplanted tumor; column 3, the dose level or dose level range and the number of days the dosage was administered; and column 4, the percent inhibition of tumor growth or percent prolongation of survival time, e.g., B16. (GLS is an abbreviation for Gardner lymphosarcoma; CA755 is an adenocarcinoma; and B16 is a melanoma.).

[1] = tested on: Gardner lymphosarcoma (GLS); test: anti-tumor activity against transplanted Gardner lymphosarcoma (GLS) in mice; format: in vivo; conditions: intraperitoneal
Method: as §1, §2, §3

CA755 adenocarcinoma = test: anti-tumor activity against transplanted adenocarcinoma 755 (CA755) in mice; format: in vivo; conditions: 755, intraperitoneal, 3.0 mg./kg. × 10 days
Method: as §1, §2, §3

[2] = tested on: Chinese hamster ovary cells; test: mitotic inhibition in Chinese hamster ovary cells; format: cell-based
Excerpt: The compounds of this invention are mitotic inhibitors in Chinese hamster ovary cells.

[3] = background statement on known alkaloids; result in words; cited from earlier work

Row | Molecule | Percent Prolongation of Survival Time (B16 melanoma; 3.0 mg./kg. × 3 days) [%] | Percent Prolongation of Survival Time (B16 melanoma; 6.0 mg./kg. × 3 days) [%] | toxic (B16 melanoma) | Percent Inhibition of tumor growth ([1]; 1.5 mg./kg. × 10 days, day 7) [%] | Percent Inhibition of tumor growth ([1]; 1.5 mg./kg. × 10 days, day 11) [%] | Percent Inhibition of tumor growth ([1]; 3.0 mg./kg. × 10 days, day 7) [%] | Percent Inhibition of tumor growth ([1]; 3.0 mg./kg. × 10 days, day 11) [%] | toxic ([1]; 6.0 mg./kg. × 10 days) | Percent Inhibition of tumor growth ([1]; 6.0 mg./kg. × 10 days, day 7) [%] | Percent Inhibition of tumor growth (CA755 adenocarcinoma) [%] | minimal effective concentration ([2]; Cricetulus griseus, read-out: mitotic inhibition, activity as low as) [µg/mL] | mitotic inhibition compared with vinblastine sulfate or 4-desacetylvinblastine ([2]; result in words) | anti-cancer activity [3]
1 | CC[C@]1(O)C[C@@H]2CN(CCc3c([nH]c4ccccc34)[C@@](C(=O)OC)(c3cc4c(cc3OC)N(C)[C@H]3[C@@](O)(C(=O)NN)[C@@H](O)[C@]5(CC)C=CCN6CC[C@]43[C@@H]65)C2)C1 [4-Desacetoxy-4α-hydroxyvinblastine C-3 carboxhydrazide] | 67 | 121 | toxic | 97 | 98 | 100 | 100 | toxic |  |  |  |  | 
2 | CC[C@]1(O)C[C@@H]2CN(CCc3c([nH]c4ccccc34)[C@@](C(=O)OC)(c3cc4c(cc3OC)N(C)[C@H]3[C@@](O)(C(=O)OC)[C@@H](O)[C@]5(CC)C=CCN6CC[C@]43[C@@H]65)C2)C1 [4-Desacetoxy-4α-hydroxy-vinblastine, 4-Desacetoxy-4α-hydroxyvinblastine] | 65 | 90 | toxic | 35 | 25 | 91 | 78 | toxic | 100 | 38 | 0.01 | roughly corresponding to that seen with either vinblastine sulfate or with 4-desacetylvinblastine | 
3 | CCC(=O)C[C@@H]1CN(C=O)CCc2c([nH]c3ccccc23)[C@@](C(=O)OC)(c2cc3c(cc2OC)N(C)[C@H]2[C@](O)(C(=O)OC)[C@H](OC(C)=O)[C@]4(CC)C=CCN5CC[C@]32[C@@H]54)C1 [vinamidine] |  |  |  |  |  |  |  |  |  |  |  |  | chemotherapeutically-inactive
4 | CC[C@]1(O)C[C@@H]2CN(CCc3c([nH]c4ccccc34)[C@@](C(=O)OC)(c3cc4c(cc3OC)N(C=O)[C@H]3[C@@](O)(C(=O)OC)[C@@H](O)[C@]5(CC)C=CCN6CC[C@]43[C@@H]65)C2)C1 [4-Desacetoxy-4α-hydroxy-vincristine sulfate] |  |  |  | 36 | 29 | 100 | 100 | toxic | 100 |  |  |  | 
5 | leurosine N-oxide [pleurosine] |  |  |  |  |  |  |  |  |  |  |  |  | loss of anti-cancer activity
